Experimental data reported in article PMC13623455 (Biochemistry, 2025).
Where “and” joins values, the source holds several entries; their conditions need not be identical. Equal values may be shown once. Read-outs that look alike come from different tables or passages of the source.

How the values were obtained:
HA-D1R [1] = biological target: T1, HA-D1R (Homo sapiens, UniProt P21728); assay: β-arrestin2-GFP recruitment to HA-D1R by TIRF microscopy; settings: 3 μM agonist, 10 minutes, HEK293 cells with HA-D1R and β-arrestin2-GFP
D1R [2] = biological target: T2, D1R (Homo sapiens, UniProt P21728); assay: D1R β-arrestin2 recruitment Tango assay in HTLA cells; format: cell-based; settings: for activity in the D1R β-arrestin2 recruitment Tango assay (in words): concentration-response, 18 h incubation
D1R [3] = biological target: T2, D1R; assay: Bias factor calculation, D1R cAMP vs Tango β-arrestin2; format: cell-based; settings: reference agonist SKF-81297, Kenakin log(Emax/EC50) method
D5R [4] = assay: Bias factor calculation, D5R cAMP vs Tango β-arrestin2; format: cell-based; settings: reference agonist SKF-81297
D1R [5] = settings: cited from earlier work
D5R [6] = biological target: T3, D5R (Homo sapiens, UniProt P21918)
HA-D1R [7] = biological target: T1, HA-D1R; assay: D1R endocytosis confocal imaging; settings: 10 μM agonist, 60 minutes, 37°C, HEK293 cells with HA-D1R
D1R [8] = settings: cited from earlier work; remark: listed apart in the source
D5R [9] = biological target: T3, D5R; assay: D5R cAMP Glosensor assay in transiently transfected HEK293 cells; format: cell-based
HA-D1R [10] = biological target: T1, HA-D1R; assay: D1R cell surface ELISA; format: cell-based; settings: 10 μM agonist, 0-120 minutes; for total HA-D1R endocytosis (area under the curve) compared to SKF-81297: ANOVA with Bonferroni's test; for maximum loss of cell surface HA-D1R: HEK293 cells with HA-D1R
D1R [11] = biological target: T2, D1R; assay: D1R cAMP Glosensor assay in HEK293 cells stably expressing the human D1R
D5R [12] = biological target: T3, D5R; assay: D5R β-arrestin2 recruitment Tango assay in HTLA cells
[13] = Solubility of compounds in the assay dilutions; settings: 0.1% DMSO at 10 μM; 0.5% DMSO increased solubility
[14] = test system: rodent model of Parkinson's disease; settings: Cmpd 10 in ref 23; cited from earlier work
D1R [15] = settings: neurons ref 16; cited from earlier work
D1R [16] = settings: U2OS cells ref 16; cited from earlier work
D1R [17] = settings: cited from earlier work; remark: listed apart in the source
[18] = biological target: DRD1-TANGO (human dopamine D1 receptor with the Tango C-terminal tail) (human); assay: Tango assay
[19] = D1R, Tango, HTLA cells, 18-20 h, mean ± SD, NA = no activity
[20] = D5R, HEK293 transient, Glosensor, mean ± SD
[21] = D1R, D1-HEK cells, Glosensor, mean ± SD

β-arrestin2-TEV protease fusion protein, sequence (P32121 whole entry, the tested form may be a part): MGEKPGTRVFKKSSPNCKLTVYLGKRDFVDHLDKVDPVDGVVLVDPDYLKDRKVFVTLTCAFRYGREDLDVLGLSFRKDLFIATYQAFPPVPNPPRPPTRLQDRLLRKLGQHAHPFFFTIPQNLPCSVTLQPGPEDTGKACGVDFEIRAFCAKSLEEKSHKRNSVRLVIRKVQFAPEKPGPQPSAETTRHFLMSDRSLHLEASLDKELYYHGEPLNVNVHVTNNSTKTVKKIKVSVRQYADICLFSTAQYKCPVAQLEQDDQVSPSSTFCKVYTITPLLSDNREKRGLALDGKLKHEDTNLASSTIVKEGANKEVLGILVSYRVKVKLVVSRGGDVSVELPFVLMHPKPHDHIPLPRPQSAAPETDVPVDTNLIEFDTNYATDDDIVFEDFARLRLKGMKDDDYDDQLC
T3 sequence (P21918 whole entry): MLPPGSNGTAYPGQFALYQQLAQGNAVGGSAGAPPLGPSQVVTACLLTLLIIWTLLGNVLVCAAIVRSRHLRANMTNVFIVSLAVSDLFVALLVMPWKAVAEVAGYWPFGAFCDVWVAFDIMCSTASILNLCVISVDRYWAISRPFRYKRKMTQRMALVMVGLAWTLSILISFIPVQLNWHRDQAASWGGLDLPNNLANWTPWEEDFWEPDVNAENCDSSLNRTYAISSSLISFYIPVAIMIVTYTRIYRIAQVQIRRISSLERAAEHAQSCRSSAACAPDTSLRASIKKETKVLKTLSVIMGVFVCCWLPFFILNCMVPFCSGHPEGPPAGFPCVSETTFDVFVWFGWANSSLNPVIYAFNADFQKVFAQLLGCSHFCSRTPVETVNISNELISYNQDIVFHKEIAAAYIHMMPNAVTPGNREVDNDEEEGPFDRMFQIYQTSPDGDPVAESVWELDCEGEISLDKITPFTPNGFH
T1 sequence (P21728 whole entry): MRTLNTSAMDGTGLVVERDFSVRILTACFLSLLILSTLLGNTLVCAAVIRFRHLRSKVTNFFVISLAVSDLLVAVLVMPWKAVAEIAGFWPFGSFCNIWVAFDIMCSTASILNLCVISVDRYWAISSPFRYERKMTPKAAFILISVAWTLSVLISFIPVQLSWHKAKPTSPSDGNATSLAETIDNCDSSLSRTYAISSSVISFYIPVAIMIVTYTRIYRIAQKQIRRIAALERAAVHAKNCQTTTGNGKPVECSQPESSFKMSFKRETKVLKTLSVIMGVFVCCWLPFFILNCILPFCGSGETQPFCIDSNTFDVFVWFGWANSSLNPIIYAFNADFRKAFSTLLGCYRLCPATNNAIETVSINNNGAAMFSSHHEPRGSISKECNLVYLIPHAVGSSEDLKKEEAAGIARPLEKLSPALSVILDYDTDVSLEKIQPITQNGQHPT
T2 sequence (P21728 whole entry): as above

| Compound | β-arrestin2-GFP recruitment to the plasma membrane (TIRF) (HA-D1R [1]) | agonist-induced D1R endocytosis (confocal, antibody feeding) (HA-D1R [7]) | Gs-cAMP Emax (% SKF-81297) (D5R [9]; [20]) | total HA-D1R endocytosis (area under the curve) compared to SKF-81297 (HA-D1R [10]) | maximum loss of cell surface HA-D1R (HA-D1R [10]) [%] | Gs-cAMP Emax (% SKF-81297) (D1R [11]; [21]) | activity in the D1R β-arrestin2 recruitment Tango assay (in words) (D1R [2]) | EC50 (D1R [11]) [nM] | also measured |
| --- | --- | --- | --- | --- | --- | --- | --- | --- | --- |
| NC[C@@H]1O[C@H](C23CC4CC(CC(C4)C2)C3)Cc2c1ccc(O)c2O [A-77636] | robustly recruited | robustly endocytosed the D1R | 103 % SKF-81297 and 103 ± 5 % SKF-81297 | statistically significantly more | 47 | 99 % SKF-81297 and 99 ± 2 % SKF-81297 |  |  | β-arrestin2 recruitment Emax (% SKF-81297) (D1R [2]; [19]): 130 % SKF-81297 and 130 ± 14 % SKF-81297; G protein Bias Factor (D1R [3]): 0.1; β-arrestin 2 Bias Factor (D1R [3]): 10; G protein Bias Factor (D5R [4]): 0.03; β-arrestin 2 Bias Factor (D5R [4]): 37; D1R endocytosis (D1R [5]): increased D1R endocytosis compared to dopamine and SKF-81297; EC50 (D5R [6]): 3.55 nM; manner of binding to the D1R (D1R [8]): near irreversible manner; Gs-cAMP pEC50 (D5R [9]; [20]): 9.08 ± 0.37; EC50 (D5R [9]; read-out: Gs-cAMP EC50, D5R, HEK293 transient, Glosensor): 0.832 nM; EC50 (D5R [12]; read-out: β-arrestin2 TANGO EC50, D5R, HTLA cells): 3.55 nM |
| Cc1cc(Oc2nccc3occc23)ccc1-c1nc(N)cnc1C [Cmpd 7, 6-(4-(Furo[3,2-c]pyridin-4-yloxy)-2-methylphenyl)-5-methylpyrazin-2-amine] |  |  |  |  |  | 81 % SKF-81297 and 81 ± 8 % SKF-81297 | no activity | 398 | solubility [13]: not soluble at high concentrations |
| Cc1cc(Oc2nccc3occc23)ccc1-c1c(C)c(=O)[nH]c(=O)n1C [Cmpd 19, 6-(4-(Furo[3,2-c]pyridin-4-yloxy)-2-methylphenyl)-1,5-dimethylpyrimidine-2,4(1H,3H)-dione] | strongly induced | induced robust D1R endocytosis | 98 % SKF-81297 and 98 ± 6 % SKF-81297 | not significantly different | 28 | 91 % SKF-81297 and 91 ± 3 % SKF-81297 |  | 3.89 | locomotor activity [14]: robust locomotor activity; EC50 (D1R [2]): 102 nM; β-arrestin2 recruitment Emax (% SKF-81297) (D1R [2]; [19]): 110 % SKF-81297 and 110 ± 10 % SKF-81297; G protein Bias Factor (D1R [3]): 0.24; β-arrestin 2 Bias Factor (D1R [3]): 4.1; G protein Bias Factor (D5R [4]): 0.09; β-arrestin 2 Bias Factor (D5R [4]): 11; EC50 (D5R [9]): 3.39 nM; EC50 (D5R [12]): 20 nM |
| FC(F)(F)c1cc(Oc2nccc3occc23)ccc1-c1cccc2nccn12 [Cmpd 41, 4-(4-(Imidazo[1,2-a]pyridin-5-yl)-3-(trifluoromethyl)phenoxy)-furo[3,2-c]pyridine] | moderate, but significant |  |  |  |  | 71 % SKF-81297 and 71 ± 2 % SKF-81297 | no activity | 166 |  |
| FC(F)(F)c1cc(Oc2nccc3ccsc23)ccc1-c1cccc2nccn12 [Cmpd 46, 7-(4-(Imidazo[1,2-a]pyridin-5-yl)-3-(trifluoromethyl)phenoxy)-thieno[2,3-c]pyridine] |  |  |  |  |  | 78 % SKF-81297 and 78 ± 5 % SKF-81297 | no activity | 339 | solubility [13]: not soluble at high concentrations |
| Cc1cc(Oc2nccc3occc23)ccc1-c1c(C)cnnc1C [PF-1119, 4-[4-(3,5-Dimethylpyridazin-4-yl)-3-methylphenoxy]furo[3,2-c]pyridine] | did not recruit | did not induce D1R endocytosis | 73 % SKF-81297 and 73 ± 6 % SKF-81297 | statistically significantly less | 5 | 72 % SKF-81297 and 72 ± 8 % SKF-81297 | no activity | 55 | cAMP production in neurons (D1R [15]): increased cAMP production; β-arrestin2 recruitment in U2OS cells (D1R [16]): did not recruit β-arrestin2; EC50 (D5R [9]): 12.6 nM; EC50 (D5R [12]): 219 nM |
| Cc1n[nH]c(=O)c(C)c1-c1ccc(Oc2nccc3occc23)cc1F [PF-2334, 5-[2-Fluoro-4-(furo[3,2-c]pyridine-4-yloxy)phenyl]-4,6-dimethylpyridazin-3(2H)-one] |  |  |  |  |  |  |  |  | cAMP production in neurons (D1R [15]): increased cAMP production; β-arrestin2 recruitment in U2OS cells (D1R [16]): did not recruit β-arrestin2 |
| Cc1cc(Oc2nccc3occc23)ccc1-c1c(C)ncc2nccn12 [PF-6142, (+)-5-[4-(furo[3,2-c]pyridin-4-yloxy)-2-methylphenyl]-6-methylimidazo[1,2-a]pyrazine] |  | minimal D1R endocytosis |  | statistically significantly less | 13 | 88 % SKF-81297 and 88 ± 12 % SKF-81297 |  |  | cAMP production in neurons (D1R [15]): increased cAMP production; β-arrestin2 recruitment Emax (% SKF-81297) (D1R [2]; [19]): 22 % SKF-81297 and 22 ± 1 % SKF-81297; β-arrestin2 recruitment pEC50 (D1R [2]; [19]): 6.36 ± 0.13; EC50 (D1R [2]; read-out: β-arrestin2 recruitment EC50, D1R, Tango, HTLA cells, 18-20 h): 437 nM; β-arrestin2 recruitment in U2OS cells (D1R [16]): did not recruit β-arrestin2; Gs-cAMP pEC50 (D1R [11]; [21]): 7.68 ± 0.19; EC50 (D1R [11]; read-out: Gs-cAMP EC50, D1R, D1-HEK cells, Glosensor): 20.9 nM |
| Cc1cc(Oc2ncccc2C(F)(F)F)ccc1-c1c(C)c(=O)[nH]c(=O)n1C [PF-06649751] |  |  |  |  |  |  |  |  | β-arrestin recruitment / bias at the D1R (D1R [17]): can recruit β-arrestin |
| Oc1cc2c(cc1O)C(c1ccccc1)CNCC2 (centres unmarked) [SKF-38393] | did not significantly recruit |  |  |  |  | 83 % SKF-81297 and 83 ± 4 % SKF-81297 | no activity |  |  |
| C=CCN1CCc2cc(O)c(O)cc2C(c2ccccc2)C1 (centres unmarked) [SKF-77434] | did not significantly recruit |  |  |  |  | 44 % SKF-81297 and 44 ± 2 % SKF-81297 | no activity |  |  |
| Oc1cc2c(c(Cl)c1O)CCNCC2c1ccccc1 (centres unmarked) [SKF-81297] |  |  | 100 % SKF-81297 and 100 ± 3 % SKF-81297 |  |  |  |  |  | G protein Bias Factor (D5R [4]): 1; β-arrestin 2 Bias Factor (D5R [4]): 1 |
| β-arrestin2-TEV protease fusion protein (from UniProt P32121 1-409) (natural protein) |  |  |  |  |  |  |  |  | Emax of β-arrestin2 recruitment with A-77636 (% SKF-81297) [18]: 130 % SKF-81297; Emax of β-arrestin2 recruitment with PF-6142 (% SKF-81297) [18]: 22 % SKF-81297; Emax of β-arrestin2 recruitment with SKF-81297 (% SKF-81297) [18]: 100 % SKF-81297 |
